Measurements taken from patent publication US11766425B2, “Antibiotic combination therapies” (BIOVERSYS AG, priority 2019, dated 2023).
Where two headings read alike, the source gives them in different places.

How the values were obtained:
Format in all cases: cell-based, Acinetobacter baumannii
[1] = system: panel of MDR clinical isolates of A. baumannii
Experimental: (§1) Checkerboards were performed according to the CLSI parameters used for microbroth dilution MIC5. CA-MHB, iron-depleted CA-MHB (ID-CA-MHB) or RPMI supplemented with 10% FCS medium were used as specified and ID-CA-MHB was prepared according to CLSI guidelines. […] FICI is calculated as follows: […]

A. baumannii IHMA690517 = assay: broth microdilution checkerboard MIC/synergy; settings: for MIC: Acinetobacter baumannii, IHMA690517, strain IHMA690517, antibiotic alone, read-out: MICs alone; for MICs combi: strain IHMA690517
Experimental: as §1

A. baumannii IHMA867231 = assay: broth microdilution checkerboard MIC/synergy; settings: for MIC: Acinetobacter baumannii, IHMA867231, strain IHMA867231, antibiotic alone, read-out: MICs alone; for MICs combi: strain IHMA867231
Experimental: as §1

A. baumannii 401255-18 = assay: broth microdilution checkerboard MIC/synergy; settings: for MIC: Acinetobacter baumannii, 40125518, strain 401255-18, antibiotic alone, read-out: MICs alone; for MICs combi: strain 401255-18
Experimental: as §1

A. baumannii UNT238-1 = assay: broth microdilution checkerboard MIC/synergy; settings: ID-CA-MHB
Experimental: as §1

A. baumannii UNT087-1 = assay: broth microdilution checkerboard MIC/synergy; settings: for MIC: Acinetobacter baumannii, UNT0871, strain UNT087-1, antibiotic alone, read-out: MICs alone; for MICs combi: strain UNT087-1
Experimental: as §1

A. baumannii UNT091-1 = assay: broth microdilution checkerboard MIC/synergy; settings: for MIC: Acinetobacter baumannii, UNT0911, strain UNT091-1, antibiotic alone, read-out: MICs alone
Experimental: as §1

A. baumannii IHMA919656 = assay: broth microdilution checkerboard MIC/synergy; settings: for MICs combi: strain IHMA919656
Experimental: as §1

A. baumannii 402608-17 = assay: broth microdilution checkerboard MIC/synergy; settings: for MIC: Acinetobacter baumannii, 40260817, strain 402608-17, antibiotic alone, read-out: MICs alone; for MICs combi: strain 402608-17
Experimental: as §1

A. baumannii 402292-17 = assay: broth microdilution checkerboard MIC/synergy; settings: for MIC: Acinetobacter baumannii, 40229217, strain 402292-17, antibiotic alone, read-out: MICs alone; for MICs combi: strain 402292-17
Experimental: as §1

A. baumannii HUMC1 = assay: broth microdilution checkerboard MIC/synergy; settings: for MIC: Acinetobacter baumannii, HUMC1, read-out: MICs alone; for MICs combi: strain HUMC1
Experimental: as §1

A. baumannii UNT191-1 = assay: broth microdilution checkerboard MIC/synergy; settings: for MIC: Acinetobacter baumannii, UNT1911, strain UNT191-1, antibiotic alone, read-out: MICs alone; for MICs combi: strain UNT191-1
Experimental: as §1

A. baumannii IHMA1013816 = assay: broth microdilution checkerboard MIC/synergy; settings: for MICs combi: strain IHMA1013816
Experimental: as §1

A. baumannii 401046-18 = assay: broth microdilution checkerboard MIC/synergy; settings: for MIC: Acinetobacter baumannii, 40104618, strain 401046-18, antibiotic alone, read-out: MICs alone; for MICs combi: strain 401046-18
Experimental: as §1

A. baumannii UNT239-1 = assay: broth microdilution checkerboard MIC/synergy; settings: for MICs combi: strain UNT239-1
Experimental: as §1

A. baumannii IHMA863866 = assay: broth microdilution checkerboard MIC/synergy
Experimental: as §1

[2] = system: A. baumannii LAC-4 strain; assay: broth microdilution checkerboard MIC/synergy; settings: for FICI / Interpretation: second antibiotic in combination with rifabutin, LAC-4; for MICs combi: strain LAC-4
Experimental: as §1
The checkerboards were performed in CA-MHB or ID-CA-MHB for cefiderocol.

[3] = rifabutin/cefiderocol checkerboard
[4] = rifabutin/cefiderocol in combination
[5] = rifabutin/cefiderocol checkerboard, ID-CA-MHB
[6] = rifabutin/cefiderocol in combination, ID-CA-MHB
[7] = rifampicin/colistin checkerboard
[8] = rifampicin/colistin in combination

How did the “decrease in the MIC of cefiderocol” value ([1]; in combination with rifabutin, all A. baumannii strains tested (16 MDR isolates)) turn out when `CC(C)(O/N=C(\C(=O)N[C@@H]1C(=O)N2C(C(=O)[O-])=C(C[N+]3(CCNC(=O)c4ccc(O)c(O)c4Cl)CCCC3)CS[C@H]12)c1csc(N)n1)C(=O)O` [Cefiderocol, cefiderocol] was run?
The value was at least 4 fold.

What about the “strains on which synergy was observed” value ([1]; rifabutin/cefiderocol, panel of strains) of the same compound?
Its value is 100%.

What about the MIC (A. baumannii IHMA690517; [3]) of the same compound?
The MIC was 0.25 µg/mL.

What about the MICs combi (A. baumannii IHMA690517; [4]) of the same compound?
Its MICs combi is 0.06 mg/L.

What about the MIC (A. baumannii IHMA867231; [3]) of the same compound?
The MIC was 1 µg/mL.

What about the MICs combi (A. baumannii IHMA867231; [4]) of the same compound?
Its MICs combi is 0.25 mg/L.

And the MIC (A. baumannii 401255-18; [3])?
Its MIC is 16 µg/mL.

What about the MICs combi (A. baumannii 401255-18; [4]) of the same compound?
The MICs combi was 4 mg/L.

And the MIC (A. baumannii UNT238-1; Acinetobacter baumannii, UNT2381, strain UNT238-1, antibiotic alone, rifabutin/cefiderocol checkerboard, read-out: MICs alone)?
The MIC was 4 µg/mL.

What about the MICs combi (A. baumannii UNT238-1; strain UNT238-1, rifabutin/cefiderocol in combination) of the same compound?
The MICs combi was 1 mg/L.

And the MIC (A. baumannii UNT087-1; [3])?
The MIC was 0.5 µg/mL.

What about the MICs combi (A. baumannii UNT087-1; [4]) of the same compound?
Its MICs combi is 0.125 mg/L.

What about the MIC (A. baumannii UNT091-1; [3]) of the same compound?
Its MIC is 4 µg/mL.

What about the MICs combi (A. baumannii UNT091-1; strain UNT091-1, rifabutin/cefiderocol in combination) of the same compound?
Its MICs combi is 1 mg/L.

What about the MIC (A. baumannii IHMA919656; Acinetobacter baumannii, IHMA919656, strain IHMA919656, antibiotic alone, rifabutin/cefiderocol checkerboard, read-out: MICs alone) of the same compound?
The MIC was 0.125 µg/mL.

And the MICs combi (A. baumannii IHMA919656; [4])?
The MICs combi was 0.03 mg/L.

And the MIC (A. baumannii 402608-17; [3])?
Its MIC is 8 µg/mL.

What about the MICs combi (A. baumannii 402608-17; [4]) of the same compound?
Its MICs combi is 2 mg/L.

What about the MIC (A. baumannii 402292-17; [3]) of the same compound?
The MIC was over 32 µg/mL.

And the MICs combi (A. baumannii 402292-17; [4])?
The MICs combi was 8 mg/L.

What about the MIC (A. baumannii HUMC1) of the same compound?
Its MIC is 2 µg/mL.

What about the MICs combi (A. baumannii HUMC1; [4]) of the same compound?
The MICs combi was 0.5 mg/L.

And the MIC (A. baumannii UNT191-1; [5])?
Its MIC is 16 µg/mL.

And the MICs combi (A. baumannii UNT191-1; [6])?
The MICs combi was 4 mg/L.

What about the MIC (A. baumannii IHMA1013816; Acinetobacter baumannii, IHMA1013816, strain IHMA1013816, antibiotic alone, rifabutin/cefiderocol checkerboard, read-out: MICs alone) of the same compound?
Its MIC is 0.06 µg/mL.

And the MICs combi (A. baumannii IHMA1013816; [4])?
Its MICs combi is 0.016 mg/L.

And the MIC (A. baumannii 401046-18; [5])?
Its MIC is 128 µg/mL.

And the MICs combi (A. baumannii 401046-18; [6])?
Its MICs combi is 32 mg/L.

And the MIC (A. baumannii UNT239-1; Acinetobacter baumannii, UNT2391, read-out: MICs alone)?
The MIC was 4 µg/mL.

What about the MICs combi (A. baumannii UNT239-1; [6]) of the same compound?
Its MICs combi is 1 mg/L.

What about the MIC (A. baumannii IHMA863866; Acinetobacter baumannii, IHMA863866, read-out: MICs alone) of the same compound?
The MIC was 4 µg/mL.

What about the MICs combi (A. baumannii IHMA863866; strain IHMA863866, rifabutin/cefiderocol in combination) of the same compound?
Its MICs combi is 1 mg/L.

And the MIC ([2]; Acinetobacter baumannii, LAC4STRAIN, read-out: MICs alone)?
Its MIC is 1 µg/mL.

What about the FICI ([2]; ID-CA-MHB) of the same compound?
Its FICI is 0.5.

And the Interpretation ([2]; ID-CA-MHB)?
Its Interpretation is “synergy (synergy (FICI≤0.5))”.

And the MICs combi [2, 6]?
The MICs combi was 0.25 mg/L.

How did the FICI ([2]; CA-MHB) turn out when `CO/N=C(\C(=O)N[C@@H]1C(=O)N2C(C(=O)O)=C(COC(C)=O)CS[C@H]12)c1csc(N)n1` [Cefotaxime, cefotaxime] was run?
The FICI was 1.5.

What about the Interpretation ([2]; CA-MHB) of the same compound?
Its Interpretation is “indifferent (indifferent (FICI>0.50 and ≤4))”.

Which FICI ([2]; CA-MHB) does the source give for `CN(C)[C@@H]1C(O)=C(C(N)=O)C(=O)[C@@]2(O)C(O)=C3C(=O)c4c(O)c(NC(=O)CN5CCCC5)cc(F)c4C[C@H]3C[C@@H]12` [Eravacycline, eravacycline] here?
Its FICI is 1.

And the Interpretation ([2]; CA-MHB)?
Its Interpretation is “indifferent (indifferent (FICI>0.50 and ≤4))”.

With `C[C@@H](O)[C@H]1C(=O)N2C(C(=O)O)=C(S[C@@H]3CN[C@H](C(=O)N(C)C)C3)[C@H](C)[C@H]12` [Meropenem, meropenem] as the compound, how does the FICI ([2]; CA-MHB) read?
Its FICI is 1.

And the Interpretation ([2]; CA-MHB)?
Its Interpretation is “indifferent (indifferent (FICI>0.50 and ≤4))”.

Which results are given for `CN(C)c1ccc(O)c2c1C[C@H]1C[C@H]3[C@H](N(C)C)C(O)=C(C(N)=O)C(=O)[C@@]3(O)C(O)=C1C2=O` [Minocycline, minocycline]?
FICI ([2]; CA-MHB): 1; Interpretation ([2]; CA-MHB): indifferent (indifferent (FICI>0.50 and ≤4))

Which results are given for `CO[C@H]1/C=C/O[C@@]2(C)Oc3c(C)c(O)c4c(O)c(c(/C=N/N5CCN(C)CC5)c(O)c4c3C2=O)NC(=O)/C(C)=C\C=C\[C@H](C)[C@H](O)[C@@H](C)[C@@H](O)[C@@H](C)[C@H](OC(C)=O)[C@@H]1C` [Rifampicin, rifampicin]?
rifampicin combination MICs ([1]; in combination with colistin, isolates with mutations in the rpoB gene): ≥ 32 mg/L; strains on which synergy was observed ([1]; rifampicin with colistin): 88%; MIC (A. baumannii IHMA690517; [7]): 4 µg/mL; MICs combi (A. baumannii IHMA690517; [8]): 0.06 mg/L; MIC (A. baumannii IHMA867231; [7]): 512 µg/mL; MICs combi (A. baumannii IHMA867231; [8]): 32 mg/L; MIC (A. baumannii 401255-18; [7]): 512 µg/mL; MICs combi (A. baumannii 401255-18; [8]): 128 mg/L; MIC (A. baumannii UNT087-1; [7]): 4 µg/mL; MICs combi (A. baumannii UNT087-1; [8]): 4 mg/L; MIC (A. baumannii UNT091-1; [7]): 4 µg/mL; MICs combi (A. baumannii IHMA919656; [8]): 0.03 mg/L; MIC (A. baumannii 402608-17; [7]): 512 µg/mL; MICs combi (A. baumannii 402608-17; [8]): 64 mg/L; MIC (A. baumannii 402292-17; [7]): 512 µg/mL; MICs combi (A. baumannii 402292-17; [8]): 256 mg/L; MIC (A. baumannii HUMC1): 4 µg/mL; MICs combi (A. baumannii HUMC1; [8]): 1 mg/L; MIC (A. baumannii UNT191-1; [7]): 4 µg/mL; MICs combi (A. baumannii UNT191-1; [8]): 0.25 mg/L; MICs combi (A. baumannii IHMA1013816; [8]): 0.06 mg/L; MIC (A. baumannii 401046-18; [7]): 512 µg/mL; MICs combi (A. baumannii 401046-18; [8]): 64 mg/L; MICs combi (A. baumannii UNT239-1; [8]): 0.25 mg/L; MICs combi [2, 8]: 0.06 mg/L

Which results are given for `NC[C@H]1O[C@H](O[C@H]2[C@H](O)[C@@H](O[C@H]3O[C@H](CO)[C@@H](O)[C@H](N)[C@H]3O)[C@H](N)C[C@@H]2N)[C@H](N)C[C@@H]1O` [Tobramycin, tobramycin]?
FICI ([2]; CA-MHB): 1.5; Interpretation ([2]; CA-MHB): indifferent (indifferent (FICI>0.50 and ≤4))
